Test results as given in patent US20030008843A1, “Bulking agents as satiety agents” (priority 2001, published 2003).

Experiments:
[1] = after oral preloading of 25 g xylitol with water, cited from earlier work
[2] = after ingestion of 25 g xylitol; control 58±5 min; cited from earlier work
[3] = ad libitum test lunch energy intake 1.5 hours after yoghurt pre-load, days 1 and 10 (Example 1); type: in vivo, human; details: for difference in average test meal energy intake versus control (significance): paired comparison; for difference in average test meal energy intake versus control (significance) / combined (pre-load and test lunch) energy intake versus control (significance): p<0.05; for combined (pre-load and test lunch) energy intake versus control (significance): post-hoc paired comparisons
Source text: Eight female and seven male subjects with mean ages ranging from about 29.5 to 30.7 yr. were used in the study. They were lean (having BMI of 21.6 Kg/m^2-23.8 Kg/m^2), and they exercised between 2-3 times per week. There were four experimental conditions that all subjects completed in a counterbalanced order with each condition separated by a one-week washout period. During each experimental condition, subjects were provided with either control or test yoghurts to consume as part of their normal diet for 10 consecutive days. The four experimental conditions differed according to the type of carbohydrate added to the yoghurt consumed: [table] Volunteers were required to consume one portion (200 g) of yoghurt on each of the 10 days. Therefore, energy content of the yoghurts varied between the four yoghurt formulations while weight was held constant. Subjects consumed the yoghurts for 10 consecutive days. However, days 2-9 were free-living during which time they were not required to visit the human appetite research unit (HARU), where the studies described hereinbelow were performed. On days 1 and 10 (test days), subjects were required to visit the HARU for a fixed breakfast at 8:30 a.m. and an ad libitum test lunch. The energy and nutrient content of the breakfast, was fixed for each of the conditions. Immediately after breakfast subjects were free to leave the unit and instructed to consume the yoghurt at 11:00am and not to consume any other food or drink during the breakfast-lunch interval. At 12:30 subjects returned to the unit for the ad libitum test lunch and were instructed to eat until a comfortable level of fullness. The food was weighed immediately before and after the test lunch to determine the energy and nutrient of food consumed. The test lunch was mixed composition (31% Fat, 53% Carbohydrate and 16% Protein) and consisted of sandwiches, […] fruit. Immediately after the test lunch subjects were provided with their yoghurts for days 2-9 and were instructed to return at 8:30 on day 10. On days 1 and 10, volunteers were provided with an ad libitum lunch 1.5 hours following consumption of the yoghurt pre-load.

[4] = humans; cited from earlier work

Compound | reduction in calories versus control [1] [%] | food intake ([1]; control 920±60 Kcal) [kcal] | gastric emptying T-1/2 [2] [min] | Suppression (%) in energy intake compared with the control yoghurt, All ([3]; all subjects, 25 g/day in 200 g yoghurt, test lunch 1.5 h after pre-load) [%] | Suppression (%) in combined preload plus test meal energy intake compared with the control yoghurt, All ([3]; all subjects, energy content of pre-load accounted for) [%] | Suppression (%) in combined preload plus test meal energy intake compared with the control yoghurt, Females ([3]; females, energy content of pre-load accounted for) [%] | Suppression (%) in energy intake compared with the control yoghurt, Females ([3]; females, test lunch 1.5 h after pre-load) [%] | Suppression (%) in combined preload plus test meal energy intake compared with the control yoghurt, Males ([3]; males, energy content of pre-load accounted for) [%] | Suppression (%) in energy intake compared with the control yoghurt, Males ([3]; males, test lunch 1.5 h after pre-load) [%] | difference in average test meal energy intake versus control (significance) [3] | difference in average test meal energy intake versus control (significance) ([3]; listed as xylitol) | combined (pre-load and test lunch) energy intake versus control (significance) [3] | combined (pre-load and test lunch) energy intake versus control (significance) ([3]; listed as xylitol) | reduction of human absorption of fat [4] [%]
OC[C@@H](O)[C@H](O)[C@@H](O)CO [Xyl, Xylitol] | 25 | 690 ± 45 | 91 ± 7 | 11.9 | 14.8 | 11.6 | 6.4 | 16.1 | 15.3 | statistically significant | significant reduction | significantly lower | significant calorie reduction | –
CCCCCCCCCCC[C@@H](C[C@@H]1OC(=O)[C@H]1CCCCCC)OC(=O)[C@H](CC(C)C)NC=O [tetrahydrolipostatin] | – | – | – | – | – | – | – | – | – | – | – | – | – | 30
